Measurements from US10323043B2, “Derivatives of macrocyclic N-aryl-tricyclopyrimidine-2-amine polyethers as inhibitors of FTL3 and JAK” (PIERRE FABRE MEDICAMENT, priority 2014, dated 2019).

Experiments:
[1] = target: T1, JAK3 (Homo sapiens, UniProt P52333); experiment: LanthaScreen TR-FRET binding test, JAK3; details: recombinant JAK3 15 nM, kinase tracer 236 3 nM, 25° C., 1 hour; read-out: Inhibition (IC50) of JAK3 enzyme
T1 construct: purchased Life Technologies PV3855
T1 sequence (P52333 1-1124): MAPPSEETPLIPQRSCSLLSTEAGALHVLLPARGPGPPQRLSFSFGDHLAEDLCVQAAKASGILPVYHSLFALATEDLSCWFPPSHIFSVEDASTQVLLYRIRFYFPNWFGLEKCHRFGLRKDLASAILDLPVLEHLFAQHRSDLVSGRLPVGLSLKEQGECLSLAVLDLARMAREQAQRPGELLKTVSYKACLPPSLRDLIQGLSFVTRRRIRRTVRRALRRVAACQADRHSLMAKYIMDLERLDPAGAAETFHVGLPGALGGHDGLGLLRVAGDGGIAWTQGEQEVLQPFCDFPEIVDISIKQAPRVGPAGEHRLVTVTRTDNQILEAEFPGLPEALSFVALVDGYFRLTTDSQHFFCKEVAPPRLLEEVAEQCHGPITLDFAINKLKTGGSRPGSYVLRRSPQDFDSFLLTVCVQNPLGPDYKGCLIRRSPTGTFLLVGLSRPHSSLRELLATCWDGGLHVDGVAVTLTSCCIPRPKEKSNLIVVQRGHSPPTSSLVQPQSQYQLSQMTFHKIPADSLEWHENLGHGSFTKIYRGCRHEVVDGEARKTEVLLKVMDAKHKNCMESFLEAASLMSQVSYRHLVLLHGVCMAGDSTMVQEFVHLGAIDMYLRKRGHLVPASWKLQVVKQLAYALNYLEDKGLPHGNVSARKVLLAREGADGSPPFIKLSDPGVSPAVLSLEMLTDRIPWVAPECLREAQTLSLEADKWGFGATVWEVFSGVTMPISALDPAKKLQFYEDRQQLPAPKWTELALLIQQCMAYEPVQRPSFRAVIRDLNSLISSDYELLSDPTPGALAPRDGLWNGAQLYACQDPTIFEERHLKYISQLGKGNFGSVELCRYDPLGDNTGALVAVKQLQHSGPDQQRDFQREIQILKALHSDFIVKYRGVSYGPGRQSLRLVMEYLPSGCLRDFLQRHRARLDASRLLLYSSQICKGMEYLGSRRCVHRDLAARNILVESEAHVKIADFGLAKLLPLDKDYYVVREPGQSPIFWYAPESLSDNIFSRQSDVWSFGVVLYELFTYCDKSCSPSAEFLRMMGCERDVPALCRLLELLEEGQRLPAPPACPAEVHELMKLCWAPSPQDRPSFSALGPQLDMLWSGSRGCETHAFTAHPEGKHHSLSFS
Method: FLT3 (#PV3182), JAK2 (#PV4210) and JAK3 (#PV3855) recombinant enzymes were purchased from Life Technologies. FLT3-ITD (#0778-0000-1) and FLT3^D835Y (#14-610) proteins were purchased from ProQinase and Merck Millipore, respectively. All the tests were carried out in 384-well plates. The principle of these binding tests is based on the LanthaScreen® TR-FRET methodology from Life Technologies.
The reaction mixture (15 μL total volume) contains the following compounds: 15 nM JAK2 or JAK3, 150 nM kinase tracer 236 (Life Technologies, #PV5592) for JAK2 or 3 nM for JAK3 and 6 nM LanthaScreen® anti-GST antibody coupled to a europium chelate (Life Technologies, #PV5594) for both enzymes.
The compounds are evaluated at 8 different concentrations prepared by making dilutions from a starting 10 mM stock solution in dimethylsulfoxide (DMSO) (Sigma, #D8418). The final DMSO concentration in the test is 1%. The reaction is carried out at 25° C. for 1 hour and detected on the EnVision® reader (Perkin Elmer) according to the recommendations of the supplier, Life Technologies.
The results are presented (Table 1) as the concentration values of the compound at which 50% of the kinase activity is inhibited, IC50 (μM), generated using the PRISM software (GraphPad).

[2] = tested on: MV4-11 cell line; experiment: Antiproliferative activity (ATPLite cell viability), MV4-11; format: cell-based; details: Homo sapiens, MV4-11 (acute myeloid leukemia, FLT3-ITD), 72 h incubation, read-out: Cytotoxicity (EC50) on MV411 cell line
Method: The characteristics of the cell lines used are as follows (Table 2):
MV4-11 and MOLM-13 cell lines are cultured in the culture medium specified in Table 2 above and according to the supplier's recommendations. The tests are carried out in 96-well plates. The cells are divided in two at D0. At D1, they are seeded and treated with the compounds at various concentrations and incubated for 72 h at 37° C. and 5% CO2. The dilution of the compounds from stock solutions in DMSO (Sigma, #D8418) was made semi-logarithmically for a final concentration in the culture medium of 0.1%. At day 4, cell viability is evaluated by assaying the ATP released by the living cells using the ATPLite® kit (Perkin Elmer, #6016947). The EC50 values (concentration of the compound necessary to obtain 50% of the maximum effect) are calculated using curve-fitting software.

IC50 [1] [nM]	SMILES	EC50 [2] [nM]
30	c1cc(N2CCNCC2)c2cc1Nc1ncc3c(n1)-c1cc(ccc1CC3)OCCOCCO2 [Compound 5]	7.2
18	CN(C)C1CCN(c2ccc3cc2OCCOCCOc2ccc4c(c2)-c2nc(ncc2CC4)N3)C1 (stereo not drawn) [Compound 30]	12
54	CN1CCN(c2ccc3cc2OCCOCCOc2ccc4c(c2)-c2nc(ncc2CC4)N3)CC1 [Compound 3]	2.8
30	OC1CCN(c2ccc3cc2OCCOCCOc2ccc4c(c2)-c2nc(ncc2CC4)N3)CC1 [Compound 19]	12
110	CN1CC=C(c2ccc3cc2OCCOCCOc2ccc4c(c2)-c2nc(ncc2CC4)N3)CC1 [Compound 23]	20

The next lines start with the compound.

SMILES	IC50 [1] [nM]	EC50 [2] [nM]
CN1CCN(c2ccc3cc2OCCOCCOc2ccc4c(c2)-c2nc(ncc2CC4)N3)CC1(C)C [Compound 40]	17.6	21
c1cc(N2CC3CNCC3C2)c2cc1Nc1ncc3c(n1)-c1cc(ccc1CC3)OCCOCCO2 (stereo not drawn) [Compound 29]	18	7.6
c1cc(N2CCC(N3CCCCC3)CC2)c2cc1Nc1ncc3c(n1)-c1cc(ccc1CC3)OCCOCCO2 [Compound 10]	60	6.5
c1cc(N2CC3CCC(C2)N3)c2cc1Nc1ncc3c(n1)-c1cc(ccc1CC3)OCCOCCO2 [Compound 42]	13	3
c1cc(N2CCC(N3CCOCC3)C2)c2cc1Nc1ncc3c(n1)-c1cc(ccc1CC3)OCCOCCO2 (stereo not drawn) [Compound 7]	120	40
c1cc(N2C[C@H]3C[C@@H]2CN3)c2cc1Nc1ncc3c(n1)-c1cc(ccc1CC3)OCCOCCO2 [Compound 44]	35	10
c1cc(OCCN2CCCC2)c2cc1Nc1ncc3c(n1)-c1cc(ccc1CC3)OCCOCCO2 [Compound 14]	70	9.2
